In PubChem BioAssay (NCI):
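Briefly, cells in 96-well plates were exposed to five compound concentrations for 48 h, and endpoints were estimated by linear interpolation. Abbreviation: GI50, concentration required for 50% inhibition of growth. TGI marks complete inhibition of growth.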

Experiments:
Test in all cases: growth of human tumour cells (NCI), 48 h
PC-3 prostate = tested on: PC-3 prostate
786-0 renal = tested on: 786-0 renal
OVCAR-8 ovarian = tested on: OVCAR-8 ovarian
HS 578T breast = tested on: HS 578T breast
SK-OV-3 ovarian = tested on: SK-OV-3 ovarian
HOP-62 NSCLC = tested on: HOP-62 NSCLC
MCF7 breast = tested on: MCF7 breast
HOP-92 NSCLC = tested on: HOP-92 NSCLC
SN12C renal = tested on: SN12C renal
SK-MEL-5 melanoma = tested on: SK-MEL-5 melanoma
SW-620 colon = tested on: SW-620 colon
SNB-19 CNS = tested on: SNB-19 CNS
MOLT-4 leukemia = tested on: MOLT-4 leukemia
NCI-H226 lung = tested on: NCI-H226 lung
A549 NSCLC = tested on: A549 NSCLC
SK-MEL-2 melanoma = tested on: SK-MEL-2 melanoma
OVCAR-4 ovarian = tested on: OVCAR-4 ovarian
MDA-MB-435 = tested on: MDA-MB-435
SK-MEL-28 melanoma = tested on: SK-MEL-28 melanoma
OVCAR-3 ovarian = tested on: OVCAR-3 ovarian
ACHN renal = tested on: ACHN renal
M14 melanoma = tested on: M14 melanoma
HCC-2998 colon = tested on: HCC-2998 colon
RXF 393 renal = tested on: RXF 393 renal
SF-268 CNS = tested on: SF-268 CNS
TK-10 renal = tested on: TK-10 renal
DU-145 prostate = tested on: DU-145 prostate
OVCAR-5 ovarian = tested on: OVCAR-5 ovarian
U251 CNS = tested on: U251 CNS
BT-549 breast = tested on: BT-549 breast
HCT-15 colon = tested on: HCT-15 colon
UACC-257 melanoma = tested on: UACC-257 melanoma
SF-539 CNS = tested on: SF-539 CNS
A498 renal = tested on: A498 renal
SNB-75 CNS = tested on: SNB-75 CNS
CAKI-1 renal = tested on: CAKI-1 renal
SF-295 CNS = tested on: SF-295 CNS
MDA-MB-231 breast = tested on: MDA-MB-231 breast
NCI-H23 lung = tested on: NCI-H23 lung
HCT-116 colon = tested on: HCT-116 colon
KM12 colon = tested on: KM12 colon
NCI-H522 lung = tested on: NCI-H522 lung
LOX IMVI melanoma = tested on: LOX IMVI melanoma
IGROV1 ovarian = tested on: IGROV1 ovarian
EKVX NSCLC = tested on: EKVX NSCLC
RPMI-8226 leukemia = tested on: RPMI-8226 leukemia
HL-60(TB) leukemia = tested on: HL-60(TB) leukemia
MALME-3M melanoma = tested on: MALME-3M melanoma
UACC-62 melanoma = tested on: UACC-62 melanoma
K-562 leukemia = tested on: K-562 leukemia
CCRF-CEM leukemia = tested on: CCRF-CEM leukemia
UO-31 renal = tested on: UO-31 renal
NCI/ADR-RES ovarian = tested on: NCI/ADR-RES ovarian
HT29 colon = tested on: HT29 colon

Structure (SMILES): Nc1nc2c([nH]1)c1[nH]c3ccccc3c1c1[nH]c3ccccc3c21
- GI50 (PC-3 prostate): 11 µM
- TGI (PC-3 prostate): 23.1 µM
- GI50 (786-0 renal): 9.44 µM
- TGI (786-0 renal): 22.6 µM
- GI50 (OVCAR-8 ovarian): 4.56 µM
- TGI (OVCAR-8 ovarian): 23.7 µM
- GI50 (HS 578T breast): 20.4 µM
- TGI (HS 578T breast): 53.9 µM
- GI50 (SK-OV-3 ovarian): 16.2 µM
- TGI (SK-OV-3 ovarian): 29.7 µM
- GI50 (HOP-62 NSCLC): 13.8 µM
- TGI (HOP-62 NSCLC): 27.3 µM
- GI50 (MCF7 breast): 4.47 µM
- TGI (MCF7 breast): 21.1 µM
- GI50 (HOP-92 NSCLC): 9.12 µM
- TGI (HOP-92 NSCLC): 22.2 µM
- GI50 (SN12C renal): 15.3 µM
- TGI (SN12C renal): 29.7 µM
- GI50 (SK-MEL-5 melanoma): 14 µM
- TGI (SK-MEL-5 melanoma): 27 µM
- GI50 (SW-620 colon): 3.31 µM
- TGI (SW-620 colon): 12.4 µM
- GI50 (SNB-19 CNS): 12.8 µM
- TGI (SNB-19 CNS): 25.5 µM
- GI50 (MOLT-4 leukemia): 1.89 µM
- TGI (MOLT-4 leukemia): 6.16 µM
- GI50 (NCI-H226 lung): 19.8 µM
- TGI (NCI-H226 lung): 45.5 µM
- GI50 (A549 NSCLC): 17.1 µM
- TGI (A549 NSCLC): 33.4 µM
- GI50 (SK-MEL-2 melanoma): 16.2 µM
- TGI (SK-MEL-2 melanoma): 32.4 µM
- GI50 (OVCAR-4 ovarian): 15.4 µM
- TGI (OVCAR-4 ovarian): 35.3 µM
- GI50 (MDA-MB-435): 9.73 µM
- TGI (MDA-MB-435): 22 µM
- GI50 (SK-MEL-28 melanoma): 11.5 µM
- TGI (SK-MEL-28 melanoma): 23.7 µM
- GI50 (OVCAR-3 ovarian): 12.6 µM
- TGI (OVCAR-3 ovarian): 25.7 µM
- GI50 (ACHN renal): 12 µM
- TGI (ACHN renal): 24.4 µM
- GI50 (M14 melanoma): 14.4 µM
- TGI (M14 melanoma): 27.8 µM
- GI50 (HCC-2998 colon): 2.26 µM
- TGI (HCC-2998 colon): 5.75 µM
- GI50 (RXF 393 renal): 6.08 µM
- TGI (RXF 393 renal): 19.4 µM
- GI50 (SF-268 CNS): 16.2 µM
- TGI (SF-268 CNS): 32.6 µM
- GI50 (TK-10 renal): 22.7 µM
- TGI (TK-10 renal): 37.7 µM
- GI50 (DU-145 prostate): 13.5 µM
- TGI (DU-145 prostate): 26.4 µM
- GI50 (OVCAR-5 ovarian): 16.1 µM
- TGI (OVCAR-5 ovarian): 30 µM
- GI50 (U251 CNS): 3.99 µM
- TGI (U251 CNS): 14.3 µM
- GI50 (BT-549 breast): 12.1 µM
- TGI (BT-549 breast): 25.5 µM
- GI50 (HCT-15 colon): 13.6 µM
- TGI (HCT-15 colon): 31.4 µM
- GI50 (UACC-257 melanoma): 18.5 µM
- TGI (UACC-257 melanoma): 33.4 µM
- GI50 (SF-539 CNS): 12.8 µM
- TGI (SF-539 CNS): 25.6 µM
- GI50 (A498 renal): 18.8 µM
- TGI (A498 renal): 35 µM
- GI50 (SNB-75 CNS): 11.9 µM
- TGI (SNB-75 CNS): 25.1 µM
- GI50 (CAKI-1 renal): 16 µM
- TGI (CAKI-1 renal): 29.5 µM
- GI50 (SF-295 CNS): 13.9 µM
- TGI (SF-295 CNS): 27.5 µM
- GI50 (MDA-MB-231 breast): 4.39 µM
- TGI (MDA-MB-231 breast): 16.9 µM
- GI50 (NCI-H23 lung): 13.7 µM
- TGI (NCI-H23 lung): 29.5 µM
- GI50 (HCT-116 colon): 5.24 µM
- TGI (HCT-116 colon): 18 µM
- GI50 (KM12 colon): 6.91 µM
- TGI (KM12 colon): 21.2 µM
- GI50 (NCI-H522 lung): 17.2 µM
- TGI (NCI-H522 lung): 34.1 µM
- GI50 (LOX IMVI melanoma): 16 µM
- TGI (LOX IMVI melanoma): 32.5 µM
- GI50 (IGROV1 ovarian): 10.2 µM
- TGI (IGROV1 ovarian): 22.6 µM
- GI50 (EKVX NSCLC): 14.1 µM
- TGI (EKVX NSCLC): 30.8 µM
- GI50 (RPMI-8226 leukemia): 9.83 µM
- TGI (RPMI-8226 leukemia): 28.3 µM
- GI50 (HL-60(TB) leukemia): 18.4 µM
- TGI (HL-60(TB) leukemia): 38.1 µM
- GI50 (MALME-3M melanoma): 1.86 µM
- TGI (MALME-3M melanoma): 4.45 µM
- GI50 (UACC-62 melanoma): 15.9 µM
- TGI (UACC-62 melanoma): 30 µM
- GI50 (K-562 leukemia): 2.23 µM
- TGI (K-562 leukemia): 5.09 µM
- GI50 (CCRF-CEM leukemia): 3.33 µM
- TGI (CCRF-CEM leukemia): 12.4 µM
- GI50 (UO-31 renal): 11 µM
- TGI (UO-31 renal): 22.9 µM
- GI50 (NCI/ADR-RES ovarian): 18.9 µM
- TGI (NCI/ADR-RES ovarian): 45.1 µM
- GI50 (HT29 colon): 5.5 µM
- TGI (HT29 colon): 17.4 µM
